Source: patent US10633350B2, “Diphenyl derivatives and uses thereof” (NOVARTIS AG, priority 2017, dated 2020)

Key:
FoxO3a = FoxO3a inhibition assay (GFP-FoxO3a nuclear to cytoplasmic translocation) in U2OS GFP-FoxO3a H212R reporter cells; assay type: cell-based; settings: Homo sapiens, 0.5 h, serum starved overnight, 30 minutes compound treatment, ratio of nuclear to cytosolic GFP intensity, AC50 = concentration that results in 50% activation or inhibition, read-out: FoxO AC50
Method in brief: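 Serum-starved (overnight) cells treated with compounds at various doses for 30 min, then fixed in 4% paraformaldehyde and stained overnight at 4 °C for pAkt S473 with Hoechst nuclear counterstain; high-content imaging. FoxO3a readout: nuclear/cytosolic GFP ratio (%); Akt readout: total cellular pAkt intensity (%); DMSO = 0% activity.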

Akt = Akt activation assay (Phospho-AKT (Ser473) antibody staining) in U2OS GFP-FoxO3a H212R reporter cells; assay type: cell-based; settings: Homo sapiens, 0.5 h, serum starved overnight, 30 minutes compound treatment, total cellular intensity of Phospho-Akt (Ser473) antibody staining, AC50 = concentration that results in 50% activation or inhibition
Protocol: Phosphorylation of Akt on S473 and FoxO3a nuclear to cytoplasmic translocation were used as readouts of PI3K/Akt/mTOR pathway activation downstream of growth factor signaling.
Reporter cell line. U2OS GFP-FoxO3a H212R reporter cell line was established by transducing U2OS cells with the retroviral plasmid pLEGFP-C1 containing FoxO3a H212R transgene and selecting for G418 resistant clones.
Reporter assay. U2OS GFP-FoxO3a H212R cells were plated in 384-well plates at 4000 cells per well in 30 microliters of McCoy's 5A medium containing 10% FBS. On day 1 the cells were washed with serum free medium and serum starved overnight. On day 2 the cells were treated with different doses of the compounds for 30 minutes, fixed with 4% Paraformaldehyde for 1 hour and stained with Phospho-AKT (Ser473) antibody (Cell Signaling Technology, catalog #4060) overnight at 4° C. After nuclei staining with Hoechst 33342 (Life Technologies, catalog # H3570) the plates were imaged with InCell 2000 (GE Healthcare Bio-Sciences). FoxO3a inhibition activity is calculated as the ratio of nuclear to cytosolic GFP intensity in percent. Akt activation is measured as the total cellular intensity of Phospho-Akt antibody staining in percent. DMSO control is set as 0% activity.

SMILES | AC50 (FoxO3a) [nM] | AC50 (Akt) [nM]
Cc1nc(C(N)=O)nn1-c1ccc(Cc2ccc(-c3ccc(CN4CCC(C)(C)C4)cc3)cc2)cc1 [Example 38-7] | 15 | 31
Cc1cc(C(N)=O)nn1-c1ccc(Cc2ccc(-c3ccc(S(C)(=O)=O)cc3)cc2)cc1 [Example 3-6, 5-methyl-1-(4-((4′-(methylsulfonyl)-[1,1′-biphenyl]-4-yl)methyl)phenyl)-1H-pyrazole-3-carboxamide] | 28 | 66
Cc1cc(C(N)=O)nn1-c1ccc(Cc2ccc(-c3ccc(CN4CCCCC4)cc3)cc2)cc1 [Example 16-6] | 103 | 248
Cc1cc(C(N)=O)nn1-c1ccc(Cc2ccc(-c3ccc4c(c3)CCNC4)cc2)cc1 [Example 3-14, 5-methyl-1-(4-(4-(1,2,3,4-tetrahydroisoquinolin-6-yl)benzyl)phenyl)-1H-pyrazole-3-carboxamide] | 53 | 161
Cc1cc(C(N)=O)nn1-c1ccc(Cc2ccc(-c3ccc(CN4CCC4)cc3)cc2)cc1 [Example 16-8] | 117 | 300
Cc1cc(C(N)=O)nn1-c1ccc(C(C)(C)c2ccc(C3=CCC(O)CC3)cc2)cc1 (centres unmarked) [Example 9, 1-(4-(2-(4′-hydroxy-2′,3′,4′,5′-tetrahydro-[1,1′-biphenyl]-4-yl)propan-2-yl)phenyl)-5-methyl-1H-pyrazole-3-carboxamide] | 253 | 532
Cc1cc(C(N)=O)nn1-c1ccc(Cc2ccc(-c3ccc(CN4CCNCC4)nc3)cc2)cc1 [Example 31-1, 5-methyl-1-(4-(4-(6-(piperazin-1-ylmethyl)pyridin-3-yl)benzyl)phenyl)-1H-pyrazole-3-carboxamide] | 77 | 354
Cc1nc(C(N)=O)nn1-c1ccc(C(C)(C)c2ccc(-c3ccc(S(=O)(=O)N(C)C)cc3)cc2)cc1 [Example 13-2] | 112 | 252
Cc1nc(C(N)=O)nn1-c1ccc(Cc2ccc(-c3ccc(CN4CCC(C)(O)CC4)cc3)cc2)cc1 [Example 39-6] | 9 | 5
Cc1cc(C(N)=O)nn1-c1ccc(C(C)(C)c2ccc(-c3ccccn3)cc2)cc1 [Example 10, 5-methyl-1-(4-(2-(4-(pyridin-2-yl)phenyl)propan-2-yl)phenyl)-1H-pyrazole-3-carboxamide] | 470 | 733
Cc1cc(C(N)=O)nn1-c1ccc(C(C)(C)c2ccc(-c3ccc(CN4CCCC4)cc3)cc2)cc1 [Example 6-1, 5-methyl-1-(4-(2-(4′-(pyrrolidin-1-ylmethyl)-[1,1′-biphenyl]-4-yl)propan-2-yl)phenyl)-1H-pyrazole-3-carboxamide] | 115 | 292
Cc1nc(C(N)=O)nn1-c1ccc(Cc2ccc(-c3ccc(CN4CC5(COC5)C4)cc3)cc2)cc1 [Example 38-4] | 62 | 207
Cc1nc(C(N)=O)nn1-c1ccc(Cc2ccc(-c3ccc(CN4CCC5(CCO5)CC4)cc3)cc2)cc1 [Example 39-37] | 81 | 270
Cc1cc(C(N)=O)nn1-c1ccc(Cc2ccc(C3=CCN(C(=O)CN(C)C)CC3)cc2)cc1 [Example 3-11, 1-(4-(4-(1-(dimethylglycyl)-1,2,3,6-tetrahydropyridin-4-yl)benzyl)phenyl)-5-methyl-1H-pyrazole-3-carboxamide] | 132 | 504
Cc1cc(C(N)=O)nn1-c1ccc(Cc2ccc(-c3ccc(C(=O)N4CCNCC4)nc3)cc2)cc1 [Example 26, 5-methyl-1-(4-(4-(6-(piperazine-1-carbonyl)pyridin-3-yl)benzyl)phenyl)-1H-pyrazole-3-carboxamide] | 75 | 480
Cc1nnc(-c2ccc(-c3ccc(C(C)(C)c4ccc(-n5nc(C(N)=O)cc5C)cc4)cc3)cc2)o1 [Example 6-6, 5-methyl-1-(4-(2-(4′-(5-methyl-1,3,4-oxadiazol-2-yl)-[1,1′-biphenyl]-4-yl)propan-2-yl)phenyl)-1H-pyrazole-3-carboxamide] | 283 | 842
Cc1nc(C(N)=O)nn1-c1ccc(Cc2ccc(-c3ccc(CN4CCC(C(C)(C)O)CC4)cc3)cc2)cc1 [Example 39-3] | 37 | 120

SMILES | AC50 (FoxO3a) [nM] | AC50 (Akt) [nM]
Cc1cc(C(N)=O)nn1-c1ccc(Cc2ccc(-c3ccc(CNC4CCC4)cc3)cc2)cc1 [Example 16-3] | 500 | 804
Cc1cc(C(N)=O)nn1-c1ccc(Cc2ccc(-c3ccc(CN4CCC[C@H]4CO)cc3)cc2)cc1 [Example 16-1, (S)-1-(4-((4′-((2-(hydroxymethyl)pyrrolidin-1-yl)methyl)-[1,1′-biphenyl]-4-yl)methyl)phenyl)-5-methyl-1H-pyrazole-3-carboxamide] | 33 | 90
Cc1nc(C(N)=O)nn1-c1ccc(C(C)(C)c2ccc(-c3ccc(N4CCOCC4)nc3)cc2)cc1 [Example 13-15] | 114 | 493
Cc1nc(C(N)=O)nn1-c1ccc(Cc2ccc(-c3ccc(CN4CCN(C)CC4)cc3)cc2)cc1 [Example 15-1, 5-methyl-1-(4-((4′-((4-methylpiperazin-1-yl)methyl)-[1,1′-biphenyl]-4-yl)methyl)phenyl)-1H-1,2,4-triazole-3-carboxamide] | 69 | 166
Cc1nc(C(N)=O)nn1-c1ccc(Cc2ccc(-c3ccc(CN4CCC(C)(C)CC4)cc3)cc2)cc1 [Example 38-10] | 175 | 397
Cc1nc(C(N)=O)nn1-c1ccc(C(C)(C)c2ccc(-c3ccc(CN4CCOCC4)cc3)cc2)cc1 [Example 13-12] | 64 | 261
Cc1nc(C(N)=O)nn1-c1ccc(Cc2ccc(-c3ccc(C(=O)N4CCNCC4)cc3)cc2)cc1 [Example 25, 5-methyl-1-(4-((4′-(piperazine-1-carbonyl)-[1,1′-biphenyl]-4-yl)methyl)phenyl)-1H-1,2,4-triazole-3-carboxamide] | 135 | 726
Cc1cc(C(N)=O)nn1-c1ccc(Cc2ccc(-c3ccnc(C(C)(C)O)c3)cc2)cc1 [Example 23, 1-(4-(4-(2-(2-hydroxypropan-2-yl)pyridin-4-yl)benzyl)phenyl)-5-methyl-1H-pyrazole-3-carboxamide] | 121 | 639
Cc1nc(C(N)=O)nn1-c1ccc(Cc2ccc(-c3ccc(C(C)(C)CO)cc3)cc2)cc1 [Example 48, 1-(4-((4′-(1-hydroxy-2-methylpropan-2-yl)-[1,1′-biphenyl]-4-yl)methyl)phenyl)-5-methyl-1H-1,2,4-triazole-3-carboxamide] | 51 | 160
Cc1cc(C(N)=O)nn1-c1ccc(Cc2ccc(-c3ccncc3)cc2)cc1 [Example 3-5, 5-methyl-1-(4-(4-(pyridin-4-yl)benzyl)phenyl)-1H-pyrazole-3-carboxamide] | 61 | 156
Cc1nc(C(N)=O)nn1-c1ccc(Cc2ccc(C#CC3(O)CCCCC3)cc2)cc1 [Example 55, 1-(4-(4-((1-hydroxycyclohexyl)ethynyl)benzyl)phenyl)-5-methyl-1H-1,2,4-triazole-3-carboxamide] | 96 | 1290
Cc1cc(C(N)=O)nn1-c1ccc(Cc2ccc3c(c2)OCc2ccccc2-3)cc1 [Example 2, 1-(4-((6H-benzo[c]chromen-3-yl)methyl)phenyl)-5-methyl-1H-pyrazole-3-carboxamide] | 137 | 326
Cc1nc(C(N)=O)nn1-c1ccc(Cc2ccc(-c3ccc(C(C)(C)CO)cn3)cc2)cc1 [Example 56, 1-(4-(4-(5-(1-hydroxy-2-methylpropan-2-yl)pyridin-2-yl)benzyl)phenyl)-5-methyl-1H-1,2,4-triazole-3-carboxamide] | 156 | 366
Cc1nc(C(N)=O)nn1-c1ccc(Cc2ccc(-c3ccc(CC4C[C@@H]5CN(C)C[C@@H]5C4)cc3)cc2)cc1 (stereo partly drawn) [Example 41, 5-methyl-1-(4-((4′-(((3aR,6aS)-2-methyloctahydrocyclopenta[c]pyrrol-5-yl)methyl)-[1,1′-biphenyl]-4-yl)methyl)phenyl)-1H-1,2,4-triazole-3-carboxamide] | 114 | 91
Cc1nc(C(N)=O)nn1-c1ccc(Cc2ccc(-c3ccc(CN4CCN(C)[C@@H](C)C4)nc3)cc2)cc1 [Example 37, (S)-1-(4-(4-(6-((3,4-dimethylpiperazin-1-yl)methyl)pyridin-3-yl)benzyl)phenyl)-5-methyl-1H-1,2,4-triazole-3-carboxamide] | 276 | 498
Cc1nc(C(N)=O)nn1-c1ccc(C(C)(C)c2ccc(-c3ccc4scnc4c3)cc2)cc1 [Example 13-7] | 159 | 504
Cc1nc(C(N)=O)nn1-c1ccc(C(C)(C)c2ccc(-c3ccc4ncccc4c3)cc2)cc1 [Example 13-3] | 311 | 943
